{"source": "patent US11623869B2", "about": "(UNIVERSIDADE ESTADUAL DE CAMPINAS—UNICAMP, priority 2017, dated 2023)", "system": "non-muscle invasive bladder cancer (CBNMI)", "test": "Adjuvancy of intravesical MRB-CFI-1 and systemic cisplatin in NMIBC rats, histopathology", "assay_type": "in vivo, Fischer 344 female rats", "excerpt": "The protocol for use of animals in research was approved by the Ethics Committee on the Use of Animals (CEUA)—UNICAMP (protocol number: 4324-1).", "key": {"[1]": {"conditions": "MNU rats, MRB-CFI-1 intravesical 20 mg/kg 6 weeks and/or cisplatin i.p. […] weekly 4 weeks, n = 7"}}}
{"smiles": "N.N.[Cl][Pt][Cl]", "note": "[cisplatin]", "values": [{"measurement": "decrease in the progression of urothelial neoplastic lesions, percentage of animals", "setting": "MNU rats, same treatments", "value": 14.28, "unit": "%"}, {"measurement": "Carcinoma in situ (Ptis), percentage of animals", "setting": "[1]", "value": 14.28, "unit": "%"}, {"measurement": "Papillary carcinoma (pTa), percentage of animals", "setting": "[1]", "value": 57.14, "unit": "%"}, {"measurement": "Papilliferous hyperplasia, percentage of animals", "setting": "[1]", "value": 14.28, "unit": "%"}, {"measurement": "Urothelial carcinoma with lamina propria invasion (pT1), percentage of animals", "setting": "[1]", "value": 14.28, "unit": "%"}, {"measurement": "Carcinoma in situ (Ptis), number of animals", "setting": "same treatments, of n = 7", "value": 1}, {"measurement": "Papillary carcinoma (pTa), number of animals", "setting": "same treatments, of n = 7", "value": 4}, {"measurement": "Papilliferous hyperplasia, number of animals", "setting": "same treatments, of n = 7", "value": 1}, {"measurement": "Urothelial carcinoma with lamina propria invasion (pT1), number of animals", "setting": "same treatments, of n = 7", "value": 1}]}
